In patent US5830770A, “Hapten-protein conjugates for use in detection of organophosphorus compounds” (priority 1993, dated 1998):
Where two headings read alike, the source gives them in different places.

Legend:
[1] = test system: generic antibodies; assay: Relative inhibition of binding of generic antibodies to hapten conjugate; parameters: species or system rabbit; conditions: inhibition at 100 μg/ml minus inhibition at 0.1 μg/ml organophosphate
Experimental: (§1) Assay was carried out in the same manner as Example 5 with the following modifications. Antisera was diluted 1:2000 with 1% BSA in PBST and 100 μl was incubated for 2 hours at 25° C. with 100 μl of each concentration of the unconjugated OP--in this case the generic part--in a microtitration plate. Concentrations of OP ranged from 200 to 0.001 μg ml^-1.

[2] = test system: antisera from rabbit 21; format: binding; parameters: key: +++: strong; ++: medium; +: weak reaction; poor: slight; -: none; conditions: antisera 1:2000, 2 hours at 25° C.
Experimental: (§2) An ELISA was used to screen the antisera for polyclonal antibodies to the generic hapten/conjugate of the invention using the following protocol. Microtitre plates (Costar) were coated with the appropriate hapten conjugate with ovalbumin by diluting that in 0.05M sodium hydrogen carbonate/sodium carbonate buffer (pH 9.6) to give an optimum protein concentration of 1 μg/ml previously determined by chequerboard titration; protein found by Bradford assay. 100 μl was added to each microtitre plate well and the plates placed in a moist chamber overnight, washed 3 times with 0.15 phosphate buffered saline pH7.2 with 0.05% Tween 20[RTM]: PBST), and blotted dry. Blocking was carried out by adding 250 μl per well of 5% skimmed milk for 1 hour at 25° C.
(§3) After two further washings the coated microplates were stored at -20° C. until required, whereon they were washed once with PBST. Antisera were diluted (1/1000 for general screening or doubling dilutions up to 1/512,000 for titration assays) in PSBT, applied to microtitre wells in triplicate in 50 μl amounts and incubated in a moist chamber at 25° C. for 1 hour (appropriate positive and negative controls were included--PBST, negative rabbit serum and positive serum when it had been produced). Wells were then washed 3 times in PBST and 200 μl of a 1:1500 dilution of swine anti-rabbit immunoglobulin conjugated to horseradish peroxidase (DAKO) was added to each well. Plates were incubated once more for 1 hour at 25° C. then washed 3 times with PBST.
(§4) Tetramethylbenzidine (TMB) enzyme substrate solution was prepared by adding 400 μl of 6.0 g/l TMB in DMSO to 24.5 ml of 0.1M sodium acetate buffer pH5.5 with 100 μl of 1% H2 O2 and 100 μl added to the wells. The microplates were incubated for 15 minutes in the dark at 25° C. before the reaction was stopped by adding 50 μl of 2.5M H2 SO4 and the absorbance read at 450 nm against air. Results: are given below with those of Example 6.
as §1
(§5) Cross reactivity of antisera from rabbits 19, 20 and 21 by inhibition ELISA with the various organophosphorus pesticides is shown in Table 5 in which concentration (μg ml^-1) for 50% inhibition to occur is given together with the diluent in which this is achieved--PBST or % methanol in PBST for figures.

[3] = test system: antisera from rabbit 19; format: binding; parameters: key: +++: strong; ++: medium; +: weak reaction; poor: slight; -: none; conditions: antisera 1:2000, 2 hours at 25° C.
Experimental: as §2, §3, §4, §1, §5

[4] = test system: antisera from rabbit 20; format: binding; parameters: key to cross reactivity by inhibition ELISA, Rabbit 20: +++: strong; ++: medium; +: weak reaction; poor: slight; -: none; conditions: for cross reactivity by inhibition ELISA, Rabbit 20: antisera 1:2000, 2 hours at 25° C.; for concentration for 50% inhibition: Rabbit 20
Experimental: as §2, §3, §4, §1, §5

[5] = test system: antisera from rabbit 21; assay: Competitive/inhibition ELISA, antisera pre-incubated with unconjugated OP, 1 μg/ml OP-Ova; format: binding; conditions: 1 hour at 25° C.
Experimental: as §2, §3, §4
(§6) This assay was carried out in the same manner as that of Example 5 with the following modifications. After plate coating the various dilutions of antisera were incubated with various concentrations of analyte solution for 1 to 2 hours at 25° C. or overnight at 4° C. Antiserum dilutions tested were 1/1000, 1/2000, 1/5000 and 1/10000 and the concentrations of the analyte ranged from 200 to 0.001 μg/ml. Coating of generic hapten-ovalbumin was at 1 μg/ml and later other coating strengths were tested ranging from 400 to 12.5 ng/ml. Note: cross reactivity in all cases was checked by carrying out an indirect ELISA where plates were coated with the blocking agents or BSA or ovalbumin at 1 μg/ml. Skimmed milk, foetal calf serum (both 5%), caesin (0.3%) or fish skin gelatin (0.5%) were selected as the blocking agent in this regard. Use of competitive assay is preferred for determining cross-reactivity.
(§7) 400 to 0.012 μg/ml conjugate for 200 to 0.001 μg/ml analyte detection.

[6] = test system: antisera from rabbit 19; assay: as above; format: binding; conditions: 1 hour at 25° C.
Experimental: as §2, §3, §4, §6, §7

[7] = test system: antisera from rabbit 20; assay: as above; format: binding; conditions: 1 hour at 25° C.
Experimental: as §2, §3, §4, §6, §7

[8] = test system: Rabbit 20 antisera; assay: Competitive/inhibition ELISA, antisera preincubated with OP for 2 hours, plate coated with 400 μg/ml OP-Ova; format: binding; conditions: 2 hours at 25° C.
Experimental: as §2, §3, §4, §6, §7

What does the source list for `CCOC(=O)CC(SP(=S)(OC)OC)C(=O)OCC` (stereo not drawn) [Malathion, malathion]?
Relative inhibition of binding of generic antibodies to hapten conjugate as % of hapten + spacer inhibition [1]: 38.6%; cross reactivity by inhibition ELISA, Rabbit 21 [2]: -; cross reactivity by inhibition ELISA, Rabbit 19 [3]: -; cross reactivity by inhibition ELISA, Rabbit 20 [4]: +

Which “Relative inhibition of binding of generic antibodies to hapten conjugate as % of hapten + spacer inhibition” value [1] does the source give for `COP(=S)(OC)Oc1ccc([N+](=O)[O-])c(C)c1` [Fenitrothion, fenitrothion] here?
The value was 90.1%.

And the “cross reactivity by inhibition ELISA, Rabbit 21” value [2]?
Its value is “+”.

What about the “cross reactivity by inhibition ELISA, Rabbit 19” value [3] of the same compound?
Its value is “+”.

And the “concentration for 50% inhibition” value ([4]; diluent 10% methanol in PBST)?
Its value is 4.8 µg/mL.

What about the “cross reactivity by inhibition ELISA, Rabbit 20” value [4] of the same compound?
The value was “+++”.

How did the “absorbance after pre-incubation with OP” value ([5]; OP 0.01 μg/ml) turn out when `COP(=S)(OC)OCCCCO` [OP] was run?
The value was 1.52.

What about the “absorbance after pre-incubation with OP” value ([5]; OP 0.1 μg/ml) of the same compound?
The value was 1.42.

What about the “absorbance after pre-incubation with OP” value ([5]; OP 0.4 μg/ml) of the same compound?
Its value is 1.45.

What about the “absorbance after pre-incubation with OP” value ([5]; OP 3.1 μg/ml) of the same compound?
Its value is 1.34.

What about the “absorbance after pre-incubation with OP” value ([5]; OP 12.5 μg/ml) of the same compound?
The value was 1.02.

And the “absorbance after pre-incubation with OP” value ([5]; OP 50.0 μg/ml)?
The value was 1.24.

And the “absorbance after pre-incubation with OP” value ([6]; OP 0.01 μg/ml)?
Its value is 1.83.

And the “absorbance after pre-incubation with OP” value ([6]; OP 0.1 μg/ml)?
Its value is 1.73.

What about the “absorbance after pre-incubation with OP” value ([6]; OP 0.4 μg/ml) of the same compound?
The value was 1.66.

And the “absorbance after pre-incubation with OP” value ([6]; OP 3.1 μg/ml)?
The value was 1.50.

What about the “absorbance after pre-incubation with OP” value ([6]; OP 12.5 μg/ml) of the same compound?
The value was 1.36.

And the “absorbance after pre-incubation with OP” value ([6]; OP 50.0 μg/ml)?
The value was 1.34.

And the “absorbance after pre-incubation with OP” value ([7]; OP 0.01 μg/ml)?
Its value is 1.95.

What about the “absorbance after pre-incubation with OP” value ([7]; OP 0.1 μg/ml) of the same compound?
Its value is 1.95.

What about the “absorbance after pre-incubation with OP” value ([7]; OP 0.4 μg/ml) of the same compound?
The value was 1.81.

What about the “absorbance after pre-incubation with OP” value ([7]; OP 3.1 μg/ml) of the same compound?
Its value is 1.54.

And the “absorbance after pre-incubation with OP” value ([7]; OP 12.5 μg/ml)?
The value was 1.31.

And the “absorbance after pre-incubation with OP” value ([7]; OP 50.0 μg/ml)?
The value was 1.19.

What about the “absorbance after preincubation with OP” value ([8]; antisera 1/1000, OP conc 0.001) of the same compound?
The value was 1.38.

And the “absorbance after preincubation with OP” value ([8]; antisera 1/1000, OP conc 0.01)?
The value was 1.58.

What about the “absorbance after preincubation with OP” value ([8]; antisera 1/1000, OP conc 0.1) of the same compound?
Its value is 1.48.

What about the “absorbance after preincubation with OP” value ([8]; antisera 1/1000, OP conc 1.0) of the same compound?
The value was 1.24.

What about the “absorbance after preincubation with OP” value ([8]; antisera 1/1000, OP conc 10.0) of the same compound?
Its value is 0.94.

And the “absorbance after preincubation with OP” value ([8]; antisera 1/1000, OP conc 20.0)?
Its value is 0.87.

And the “absorbance after preincubation with OP” value ([8]; antisera 1/1000, OP conc 100.0)?
The value was 0.82.

And the “absorbance after preincubation with OP” value ([8]; antisera 1/1000, OP conc 200.0)?
Its value is 0.89.

What about the “absorbance after preincubation with OP” value ([8]; antisera 1/2000, OP conc 0.001) of the same compound?
The value was 1.10.

What about the “absorbance after preincubation with OP” value ([8]; antisera 1/2000, OP conc 0.01) of the same compound?
Its value is 1.11.

And the “absorbance after preincubation with OP” value ([8]; antisera 1/2000, OP conc 0.1)?
Its value is 1.04.

What about the “absorbance after preincubation with OP” value ([8]; antisera 1/2000, OP conc 1.0) of the same compound?
Its value is 0.87.

What about the “absorbance after preincubation with OP” value ([8]; antisera 1/2000, OP conc 10.0) of the same compound?
The value was 0.74.

What about the “absorbance after preincubation with OP” value ([8]; antisera 1/2000, OP conc 20.0) of the same compound?
The value was 0.67.

What about the “absorbance after preincubation with OP” value ([8]; antisera 1/2000, OP conc 100.0) of the same compound?
The value was 0.67.

What about the “absorbance after preincubation with OP” value ([8]; antisera 1/2000, OP conc 200.0) of the same compound?
The value was 0.69.

With `COP(=S)(OC)OCCCCO` [Hapten + spacer, (CH3 O)2 P(S)--O--(CH2)4 --OH] as the compound, how does the “Relative inhibition of binding of generic antibodies to hapten conjugate as % of hapten + spacer inhibition” value [1] read?
The value was 100.0%.

And the “cross reactivity by inhibition ELISA, Rabbit 21” value [2]?
Its value is “+++”.

And the “cross reactivity by inhibition ELISA, Rabbit 19” value [3]?
The value was “+++”.

What about the “concentration for 50% inhibition” value ([4]; diluent PBST) of the same compound?
Its value is 3.0 µg/mL.

And the “cross reactivity by inhibition ELISA, Rabbit 20” value [4]?
Its value is “+++”.

Which “cross reactivity by inhibition ELISA, Rabbit 21” value [2] does the source give for `OCCCCO` [Spacer, 1,4 butanediol] here?
Its value is “-”.

And the “cross reactivity by inhibition ELISA, Rabbit 19” value [3]?
Its value is “-”.

And the “cross reactivity by inhibition ELISA, Rabbit 20” value [4]?
Its value is “-”.

How did the “Relative inhibition of binding of generic antibodies to hapten conjugate as % of hapten + spacer inhibition” value [1] turn out when `CCN(CC)c1nc(C)cc(OP(=S)(OC)OC)n1` [Pirimiphos-methyl, pirimiphos-methyl] was run?
Its value is 21.1%.

And the “cross reactivity by inhibition ELISA, Rabbit 21” value [2]?
The value was “-”.

What about the “cross reactivity by inhibition ELISA, Rabbit 19” value [3] of the same compound?
The value was “-”.

And the “cross reactivity by inhibition ELISA, Rabbit 20” value [4]?
Its value is “poor”.

`COP(=O)(OC)OC=C(Cl)Cl` [Dichlorvos, dichlorvos] was tested. Which “Relative inhibition of binding of generic antibodies to hapten conjugate as % of hapten + spacer inhibition” value [1] did it give?
Its value is 60.0%.

And the “cross reactivity by inhibition ELISA, Rabbit 21” value [2]?
The value was “+”.

And the “cross reactivity by inhibition ELISA, Rabbit 19” value [3]?
Its value is “++”.

What about the “concentration for 50% inhibition” value ([4]; diluent PBST) of the same compound?
The value was 91.1 µg/mL.

What about the “cross reactivity by inhibition ELISA, Rabbit 20” value [4] of the same compound?
The value was “++”.
